Measured values reported in ChEMBL document CHEMBL1124555, “9-Amino-1,2,3,4-tetrahydroacridin-1-ols: synthesis and evaluation as potential Alzheimer's disease therapeutics” (J Med Chem, 1989).

What was measured:
Mus musculus [1] = organism: Mus musculus; format: functional; conditions: at 5 mg/kg
Description: Reversal of scopolamine-induced memory impairment in mice at 5 mg/Kg administered subcutaneously.

Mus musculus [2] = organism: Mus musculus; format: functional; conditions: at 1.25 mg/kg
Description: Reversal of scopolamine-induced memory impairment in mice at 1.25 mg/Kg administered subcutaneously.

Mus musculus [3] = organism: Mus musculus; format: functional; conditions: at 2.5 mg/kg
Description: Reversal of scopolamine-induced memory impairment in mice at 2.5 mg/Kg administered subcutaneously.

Mus musculus [4] = organism: Mus musculus; format: functional; conditions: at 0.16 mg/kg
Description: Reversal of scopolamine-induced memory impairment in mice at 0.16 mg/Kg administered subcutaneously.

Mus musculus [5] = organism: Mus musculus; format: functional; conditions: at 0.63 mg/kg
Description: Reversal of scopolamine-induced memory impairment in mice at 0.63 mg/Kg administered subcutaneously.

Mus musculus [6] = organism: Mus musculus; format: functional; conditions: at […]
Description: Reversal of scopolamine-induced memory impairment in mice at 0.31 mg/Kg administered subcutaneously.

[7] = molecular target: Norepinephrine transporter (Rattus norvegicus, UniProt Q9WTR4)
Norepinephrine transporter, sequence (Q9WTR4 whole entry): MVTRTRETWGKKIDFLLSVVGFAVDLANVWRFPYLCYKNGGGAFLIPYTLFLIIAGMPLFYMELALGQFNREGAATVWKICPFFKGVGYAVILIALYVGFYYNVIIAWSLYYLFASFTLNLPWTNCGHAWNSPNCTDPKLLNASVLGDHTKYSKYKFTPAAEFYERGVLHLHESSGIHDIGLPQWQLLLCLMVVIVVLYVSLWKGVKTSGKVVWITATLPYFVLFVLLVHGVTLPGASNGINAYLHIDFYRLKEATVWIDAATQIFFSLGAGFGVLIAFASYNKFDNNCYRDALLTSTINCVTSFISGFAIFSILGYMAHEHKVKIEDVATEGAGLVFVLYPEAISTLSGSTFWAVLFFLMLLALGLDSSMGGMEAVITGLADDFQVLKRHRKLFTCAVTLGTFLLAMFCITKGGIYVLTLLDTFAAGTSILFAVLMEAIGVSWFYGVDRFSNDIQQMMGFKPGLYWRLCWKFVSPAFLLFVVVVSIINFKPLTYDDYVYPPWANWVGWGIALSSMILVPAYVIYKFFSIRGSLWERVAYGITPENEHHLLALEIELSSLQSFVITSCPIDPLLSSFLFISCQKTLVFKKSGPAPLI
Description: Inhibition of norepinephrine reuptake in rat whole brains minus cerebellar

Acetylcholinesterase = molecular target: T1, Acetylcholinesterase (Rattus norvegicus, UniProt P37136)
T1 sequence (P37136 whole entry): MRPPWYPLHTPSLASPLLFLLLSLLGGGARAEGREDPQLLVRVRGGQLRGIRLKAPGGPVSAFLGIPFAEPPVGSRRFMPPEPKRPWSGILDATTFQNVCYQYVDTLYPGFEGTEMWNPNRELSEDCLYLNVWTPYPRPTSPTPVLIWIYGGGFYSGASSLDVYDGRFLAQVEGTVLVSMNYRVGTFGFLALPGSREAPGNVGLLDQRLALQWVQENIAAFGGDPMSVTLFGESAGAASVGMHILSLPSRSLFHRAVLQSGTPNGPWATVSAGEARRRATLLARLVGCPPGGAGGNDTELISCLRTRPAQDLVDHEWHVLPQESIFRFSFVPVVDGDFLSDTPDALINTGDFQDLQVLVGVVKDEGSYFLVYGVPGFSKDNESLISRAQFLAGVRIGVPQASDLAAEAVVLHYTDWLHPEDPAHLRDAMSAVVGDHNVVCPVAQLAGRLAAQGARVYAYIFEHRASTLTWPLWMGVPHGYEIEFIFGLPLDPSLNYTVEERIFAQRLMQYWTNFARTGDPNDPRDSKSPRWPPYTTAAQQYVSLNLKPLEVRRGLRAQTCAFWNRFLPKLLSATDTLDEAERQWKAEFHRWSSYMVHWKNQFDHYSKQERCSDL
Description: In vitro inhibition against acetylcholinesterase in rat striata.

[8] = Toxicity was evaluated in rats, after intraperitoneal administration;Value ranges from (40-80).; format: organism-based; conditions: rat, in vivo, ip
in vivo = conditions: rat, ip
Description: Toxicity evaluated in rats after intraperitoneal administration.

[9] = molecular target: Sodium-dependent dopamine transporter (Rattus norvegicus, UniProt P23977); format: functional
Sodium-dependent dopamine transporter, sequence (P23977 whole entry): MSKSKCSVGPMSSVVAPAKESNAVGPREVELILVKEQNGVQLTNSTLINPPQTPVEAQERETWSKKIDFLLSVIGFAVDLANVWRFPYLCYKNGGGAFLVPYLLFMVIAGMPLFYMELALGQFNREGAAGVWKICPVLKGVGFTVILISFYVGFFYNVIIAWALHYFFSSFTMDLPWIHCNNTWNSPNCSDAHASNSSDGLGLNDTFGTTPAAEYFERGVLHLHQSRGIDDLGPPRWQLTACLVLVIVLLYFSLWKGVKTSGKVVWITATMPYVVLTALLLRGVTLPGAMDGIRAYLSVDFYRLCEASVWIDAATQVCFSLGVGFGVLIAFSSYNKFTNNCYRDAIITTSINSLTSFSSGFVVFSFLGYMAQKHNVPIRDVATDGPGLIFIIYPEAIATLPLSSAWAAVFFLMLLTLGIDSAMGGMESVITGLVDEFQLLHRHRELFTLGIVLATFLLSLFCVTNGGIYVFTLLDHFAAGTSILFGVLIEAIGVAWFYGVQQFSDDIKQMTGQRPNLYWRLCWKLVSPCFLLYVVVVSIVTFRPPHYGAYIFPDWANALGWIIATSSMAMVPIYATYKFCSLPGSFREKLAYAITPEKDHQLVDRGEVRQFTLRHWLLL
Description: Inhibition of the reuptake of dopamine in rat corpora striata.

[10] = molecular target: Sodium-dependent serotonin transporter (Rattus norvegicus, UniProt P31652); format: functional
Sodium-dependent serotonin transporter, sequence (P31652 whole entry): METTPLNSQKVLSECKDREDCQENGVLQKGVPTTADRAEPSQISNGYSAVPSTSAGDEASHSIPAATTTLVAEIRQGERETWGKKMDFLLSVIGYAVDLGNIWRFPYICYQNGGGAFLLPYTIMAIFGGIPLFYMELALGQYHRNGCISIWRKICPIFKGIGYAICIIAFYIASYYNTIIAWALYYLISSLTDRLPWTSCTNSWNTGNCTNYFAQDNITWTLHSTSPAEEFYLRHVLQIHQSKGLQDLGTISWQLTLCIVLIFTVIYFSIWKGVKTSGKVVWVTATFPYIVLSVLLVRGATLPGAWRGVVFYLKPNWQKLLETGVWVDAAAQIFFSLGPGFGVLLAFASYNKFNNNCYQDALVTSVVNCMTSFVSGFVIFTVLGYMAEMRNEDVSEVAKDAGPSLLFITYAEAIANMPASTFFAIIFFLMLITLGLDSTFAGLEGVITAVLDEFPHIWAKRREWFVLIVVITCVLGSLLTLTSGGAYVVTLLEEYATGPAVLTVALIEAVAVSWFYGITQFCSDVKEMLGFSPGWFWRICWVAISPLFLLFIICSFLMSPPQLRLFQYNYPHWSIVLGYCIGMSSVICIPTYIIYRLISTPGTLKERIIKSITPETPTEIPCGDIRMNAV
Description: Inhibition of serotonin reuptake in rat whole brains without cerebellum

[11] = Toxicity was evaluated in rats, after intraperitoneal administration;Value ranges from(40-80); format: organism-based; conditions: rat, in vivo, ip

Row | SMILES | Animals (Mus musculus [1]) | Animals (Mus musculus [2]) | Animals (Mus musculus [3]) | Animals (Mus musculus [4]) | Animals (Mus musculus [5]) | Animals (Mus musculus [6]) | IC50 [7] | IC50 (Acetylcholinesterase) | LD50 [8] | LD50 (in vivo) | IC50 [9] | IC50 [10] | LD50 [11]
1 | OC1CCCc2nc3cc(F)ccc3c(NCc3ccccc3)c21 (configuration not stated) | 0% | 0% | 0% | 13% | 0% | 0% | 0.2 µM | 8.63 µM | < 80 mg/kg | – | – | – | –
2 | OC1CCCc2nc3ccccc3c(NCc3cccc(Cl)c3)c21 (configuration not stated) | – | – | – | – | – | – | – | 13.3 µM | – | > 80 mg/kg | – | – | –
3 | O=C(O)/C=C/C(=O)O.OC1CCCc2nc3ccccc3c(NCCCC(c3cccc(F)c3)c3cccc(F)c3)c21 (configuration not stated) | – | – | – | – | – | – | – | 63 µM | – | > 80 mg/kg | – | – | –
4 | COc1ccccc1CNc1c2c(nc3ccccc13)CCCC2O (configuration not stated) | 27% | 7% | 13% | 33% | 20% | 7% | 4.8 µM | 36 µM | – | 80 mg/kg | 0.72 µM | 9.8 µM | –
5 | OC1CCCc2nc3ccccc3c(NCCc3ccccc3)c21 (configuration not stated) | 0% | 23% | 0% | 7% | 0% | 20% | 1.4 µM | 3.39 µM | – | > 80 mg/kg | 4.7 µM | 7.7 µM | –
6 | CN(C)CCNc1c2c(nc3ccccc13)CCCC2O (configuration not stated) | – | – | – | – | – | – | – | 7.68 µM | – | > 80 mg/kg | – | – | –
7 | Nc1c2c(nc3cc(C(F)(F)F)ccc13)CCCC2O (configuration not stated) | 33% | 33% | 21% | 40% | 71% | 26% | – | 1.77 µM | – | – | – | – | < 80 mg/kg
8 | OC1CCCc2nc3ccccc3c(NCc3cccc(F)c3)c21 (configuration not stated) | 21% | 0% | 14% | 33% | 7% | 23% | 0.12 µM | 13.1 µM | < 80 mg/kg | – | 0.3 µM | 6.2 µM | –
9 | OC1CCCc2nc3cc(Cl)ccc3c(NCc3ccc(F)cc3)c21 (configuration not stated) | 0% | 7% | 0% | 13% | 7% | 7% | 2.2 µM | 0.823 µM | – | > 80 mg/kg | 4.1 µM | 6.6 µM | –
10 | OC1CCCc2nc3ccccc3c(NCCCC(c3ccc(F)cc3)c3ccc(F)cc3)c21 (configuration not stated) | – | – | – | – | – | – | – | 87.8 µM | – | > 80 mg/kg | – | – | –
11 | Nc1c2c(nc3cc(Cl)ccc13)CCCC2O (configuration not stated) | 16% | 7% | 0% | 7% | 0% | 7% | > 20 µM | 0.0117 µM | – | > 10 mg/kg | > 20 µM | > 20 µM | –
12 | Cc1cccc(CNc2c3c(nc4ccccc24)CCCC3O)c1 (configuration not stated) | 20% | 20% | 13% | 7% | 20% | 7% | 0.22 µM | 24.5 µM | – | – | 0.51 µM | 5.5 µM | < 80 mg/kg
13 | Nc1c2c(nc3cc(F)ccc13)CCCC2O (configuration not stated) | 40% | 20% | 33% | 73% | 20% | 29% | > 10 µM | 0.292 µM | – | 40 mg/kg | – | – | –
14 | Cc1ccc(CNc2c3c(nc4ccccc24)CCCC3O)cc1 (configuration not stated) | – | – | – | – | – | – | 1.1 µM | 21 µM | – | > 80 mg/kg | 2.2 µM | 8 µM | –
15 | OC1CCCc2nc3ccccc3c(NCc3cccc(C(F)(F)F)c3)c21 (configuration not stated) | 0% | 7% | 0% | 0% | 0% | 0% | 0.93 µM | 14.2 µM | < 80 mg/kg | – | 2.4 µM | 2.3 µM | –
16 | OC1CCCc2nc3ccccc3c(NCCCC(c3ccccc3)c3ccccc3)c21 (configuration not stated) | 6% | 13% | 0% | 20% | 6% | 6% | 1.5 µM | 49.3 µM | – | > 80 mg/kg | 2.1 µM | 5.7 µM | –

Row | SMILES | Animals (Mus musculus [1]) | Animals (Mus musculus [2]) | Animals (Mus musculus [3]) | Animals (Mus musculus [4]) | Animals (Mus musculus [5]) | Animals (Mus musculus [6]) | IC50 [7] | IC50 (Acetylcholinesterase) | LD50 [8] | LD50 (in vivo) | IC50 [9] | IC50 [10] | LD50 [11]
17 | OC1CCCc2nc3cc(F)ccc3c(NCc3ccccc3C(F)(F)F)c21 (configuration not stated) | 13% | 0% | 0% | 0% | 7% | 20% | 0.54 µM | 20.1 µM | – | > 80 mg/kg | 0.31 µM | 20 µM | –
18 | OC1CCCc2nc3ccccc3c(NCCCOc3ccccc3)c21 (configuration not stated) | – | 13% | 7% | 0% | 0% | 0% | – | 3.98 µM | – | > 80 mg/kg | – | – | –
19 | COc1ccc(CNc2c3c(nc4ccccc24)CCCC3O)cc1 (configuration not stated) | – | – | – | – | – | – | 25 µM | 10.9 µM | – | > 80 mg/kg | 5.3 µM | 5 µM | –
20 | O=C(O)/C=C/C(=O)O.OC1CCCc2nc3ccccc3c(NCc3cccs3)c21 (configuration not stated) | – | – | – | – | – | – | 0.29 µM | 15.3 µM | – | > 80 mg/kg | 2.4 µM | 20 µM | –
21 | Nc1c2c(nc3ccccc13)CCC2O (configuration not stated) | 7% | 0% | 7% | 13% | 0% | 13% | – | 5.97 µM | – | > 80 mg/kg | – | – | –
22 | COc1cccc(CNc2c3c(nc4ccccc24)CCCC3O)c1 (configuration not stated) | 0% | 0% | 0% | 0% | 0% | 0% | 1.5 µM | 21.1 µM | – | > 80 mg/kg | 2.1 µM | 6.2 µM | –
23 | OC1CCCc2nc3ccccc3c(NCc3ccc(F)cc3)c21 (configuration not stated) | 6% | 27% | 33% | 7% | 25% | 20% | 1.8 µM | 16.7 µM | < 80 mg/kg | – | 2.9 µM | 12 µM | –
24 | OC1CCCc2nc3ccccc3c(NCc3ccc(C(F)(F)F)cc3)c21 (configuration not stated) | 20% | 15% | 0% | 22% | 7% | 8% | 0.27 µM | 18.1 µM | – | > 80 mg/kg | 2.4 µM | 6.6 µM | –
25 | O=C(O)/C=C/C(=O)O.OC1CCCc2nc3ccccc3c(NCc3c(F)c(F)c(F)c(F)c3F)c21 (configuration not stated) | 20% | 13% | 0% | 7% | 7% | 7% | 11 µM | 12.6 µM | – | > 80 mg/kg | – | – | –
26 | OC1CCCc2nc3cc(C(F)(F)F)ccc3c(NCc3ccccc3)c21 (configuration not stated) | – | – | – | – | – | – | – | 68.2 µM | – | > 80 mg/kg | – | – | –
27 | OC1CCCc2nc3ccccc3c(NCc3ccccc3F)c21 (configuration not stated) | 7% | 7% | 20% | 7% | 33% | 14% | 0.11 µM | 41.3 µM | < 80 mg/kg | – | 0.41 µM | 17 µM | –
28 | COc1ccc2c(N)c3c(nc2c1)CCCC3O (configuration not stated) | – | – | – | – | – | – | – | 2 µM | – | > 80 mg/kg | – | – | –
29 | OC1CCCc2nc3cc(Cl)ccc3c(NCc3ccccc3)c21 (configuration not stated) | 0% | 7% | 7% | 0% | 7% | 13% | 0.82 µM | 1.3 µM | – | > 80 mg/kg | 1.3 µM | 15 µM | –
30 | OC1CCCc2nc3ccccc3c(NCc3ccc(Cl)cc3)c21 (configuration not stated) | – | – | – | – | – | – | 1.1 µM | 27.2 µM | – | > 80 mg/kg | 9.8 µM | 5.7 µM | –
31 | OC1CCCc2nc3ccccc3c(NCc3ccccc3Cl)c21 (configuration not stated) | 7% | 27% | 13% | 0% | 7% | 27% | 0.043 µM | 10.3 µM | – | > 80 mg/kg | 0.13 µM | 9.3 µM | –
